Laboratory results reported in patent publication US20130203649A1, “INHIBITORS OF TLR SIGNALING BY TARGETING TIR DOMAIN INTERFACES” (UNIVERSITY OF MARYLAND, BALTIMORE, priority 2012, published 2013).
Residues, ends and D or L forms follow the SMILES beside them. No end group written: not given here.

Legend:
[1] = test system: TLR4; test: LPS-induced MAPK (ERK, JNK, p38) activation in mouse macrophages (Western analysis); type: cell-based; settings: for LPS-induced ERK phosphorylation / LPS-induced JNK activation: 30 min LPS 10 ng/ml
Protocol: Cellular protein extracts were isolated by addition of 240 μL per well cold lysate buffer (20 mM Tris, 50 mM NaCl, 1.5 mM MgCl2, 2 mM EDTA, 10 mM NaF, 2 Mm DTT, 1 mM Na3VO4, 1% Triton). Cells were incubated with lysis solution for 30 min on agitator at 4° C. Lysate was then collected and centrifuged at 14,000 g for 10 minutes at 4° C. After quantification using BioRad protein assay, protein samples were added to Laemmli buffer and then boiled for 10 min. Samples were then resolved by SDS-10% PAGE in Tris/glycine/SDS buffer (25 mM Tris, 250 mM glycine, 0.1% SDS), and transferred onto Immobilon P transfer membranes (Millipore, Bedford, Mass.) (100 V, 1.5 h, 4° C.). Membranes were blocked for 1 h in TBS-T (20 mM Tris-HCl, 150 mM NaCl, 0.1% Tween 20) containing 5% nonfat milk, then probed for overnight at 4° C. with the respective antibodies (Abs) (dilution 1:1000 in TBS-T with 2% BSA). After washing in TBS-T, membranes were incubated with secondary HRP-conjugated, donkey anti-rabbit IgG (1:10,000 dilution in TBS-T with 5% nonfat milk) for 1 h at room temperature. Membranes washed five times in TBS-T before development with ECL reagents (GE Healthcare) according to manufacturer's directions.
HEK293T cells were transfected with indicated plasmids using Superfect Transfection Reagent (Qiagen). Twenty-four hours posttransfection, the cells were lysed using the buffer containing 20 mM HEPES (pH 7.4), 150 mM NaCl, 10 mM NaF, 2 mM Na3VO4, 1 mM EDTA, 1 mM EGTA, 0.5% Triton X-100, 0.1 M DTT, 1 mM PMSF, and protease inhibitor mixture (Roche, Indianapolis, Ind.). Rabbit Ab against phospho-ERK, phospho-JNK, MyD88 (D80F5), STAT1-Y701, total STAT1, and GAPDH were purchased from Cell Signaling Technology (Beverly, Mass.). Rabbit anti-phospho-p38 Ab was purchased from Promega (Madison, Wis.). Goat anti-TLR4 (M−16), rabbit anti-TLR4 (H-80), anti-HA-HRP (F-7), and rabbit anti-b-actin Ab were purchased from Santa Cruz Biotechnology. Mouse anti-Flag M2 and rabbit anti-HA Ab were from Sigma-Aldrich. GFP Ab (A1122) was from Invitrogen. Protein was quantified using Bio-Rad protein quantification kit. Equal amount of protein was loaded and analyzed by 10% SDS-PAGE and immunoblotting. The cell extracts containing equal amount of protein were incubated with 1 μg Ab for 2 h, followed by 4-h incubation with 25 μl protein G agarose beads (Roche); the beads were then washed four times with lysis buffer, boiled in […] sample loading buffer, and analyzed by immunoblotting.
We next examined whether TRAM peptides inhibit the TLR4-mediated p38, ERK, and JNK MAPK activation. Murine macrophages pretreated with peptides for 30 min were challenged with LPS. Cell lysates were collected 30 min post-stimulation and analyzed for MAPK phosphorylation by Western analysis. Consistent with peptide effects on steady-state mRNA, both TM4 and TM6 inhibited activation of all three MAPKs (FIG. 5C). The inhibition of MAPKs by TM4 or TM6 was long lasting; it persisted for at least 1 h after LPS stimulation (data not shown). To characterize further the effects of TRAM peptides on MAPKs, murine macrophages were treated with TRAM peptides, but not challenged by LPS.

[2] = test system: TLR4; test: Inhibition of TLR4 signaling in thioglycollate-elicited mouse macrophages (effective concentration, overall inhibitory activity); type: cell-based; settings: for Inhibition of TLR4 signaling (overall): LPS-stimulated mouse macrophages; for Effective conc.: TLR4 pathway, thioglycollate-elicited mouse macrophages
Summary of the method: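 Thioglycollate-elicited peritoneal macrophages from C57BL/6J mice, adherent after overnight culture in RPMI with 2% FBS; cell-permeating (Antennapedia-fused) decoy peptides added 30 min before agonist. TLR4 stimulated with E. coli K235 LPS at 100 ng/ml final.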

Row | Molecule | LPS-induced ERK phosphorylation ([1]; 20 μM peptide) | Inhibition of TLR4 signaling (overall) [2] | Effective conc. [2] [µM] | LPS-induced JNK activation ([1]; 20 μM peptide) | LPS-induced p38, ERK, and JNK MAPK activation ([1]; lysates 30 min after LPS) | LPS-induced activation of p38 and ERK MAPKs ([1]; 20 μM peptide, LPS 30 min)
1 | CC[C@H](C)[C@H](NC(=O)[C@H](CCCCN)NC(=O)[C@@H](NC(=O)[C@H](CCC(N)=O)NC(=O)[C@@H](N)CCCNC(=N)N)[C@@H](C)CC)C(=O)N[C@@H](Cc1c[nH]c2ccccc12)C(=O)N[C@@H](Cc1ccccc1)C(=O)N[C@@H](CCC(N)=O)C(=O)N[C@@H](CC(N)=O)C(=O)N[C@@H](CCCNC(=N)N)C(=O)N[C@@H](CCCNC(=N)N)C(=O)N[C@@H](CCSC)C(=O)N[C@@H](CCCCN)C(=O)N[C@@H](Cc1c[nH]c2ccccc12)C(=O)N[C@@H](CCCCN)C(=O)N[C@@H](CCCCN)C(=O)N[C@@H](CCC(=O)O)C(=O)N[C@@H](CC(C)C)C(=O)N[C@@H](CS)C(=O)N[C@@H](CCC(N)=O)C(=O)N[C@@H](C)C(=O)N[C@@H](CC(C)C)C(=O)N[C@@H](CO)C(=O)N[C@@H](CCCNC(=N)N)C(=O)N[C@@H](CO)C(=O)N[C@@H](Cc1c[nH]cn1)C(=O)N[C@@H](CS)C(=O)N[C@@H](CCCNC(=N)N)C(=O)O [TR5] (H-RQIKIWFQNRRMKWKKELCQALSRSHCR-OH) | potently inhibited | potently inhibited | 20 | – | – | –
2 | RQIKIWFQNRRMKWKKAAYPPELRFMYYVD [TR9] | potently inhibited | potently inhibited | 20 | inhibited | – | –
3 | RQIKIWFQNRRMKWKKCLQDAIDHSGFT [TF5] | – | – | 20 | – | inhibit | –
4 | RQIKIWFQNRRMKWKKEGSQASLRCF [TR3] | potently inhibited | potently inhibited | – | apparent absence of JNK inhibition | – | –
5 | RQIKIWFQNRRMKWKKGGFYQVKEAVIHY [TR11] | potently inhibited | potently inhibited | 20 | inhibited | – | –
6 | RQIKIWFQNRRMKWKKPGFLRDPWCKYQML [TR6] | potently inhibited | potently inhibited | – | apparent absence of JNK inhibition | – | potently inhibited
